This is an account of results in ChEMBL document CHEMBL1641528, “Reverse type I inhibitor of Mycobacterium tuberculosis CYP125A1” (Bioorg Med Chem Lett, 2011).

This assay deals with T1, Steroid C26-monooxygenase (Mycobacterium tuberculosis, UniProt P9WPP1).
T1 sequence (P9WPP1 whole entry): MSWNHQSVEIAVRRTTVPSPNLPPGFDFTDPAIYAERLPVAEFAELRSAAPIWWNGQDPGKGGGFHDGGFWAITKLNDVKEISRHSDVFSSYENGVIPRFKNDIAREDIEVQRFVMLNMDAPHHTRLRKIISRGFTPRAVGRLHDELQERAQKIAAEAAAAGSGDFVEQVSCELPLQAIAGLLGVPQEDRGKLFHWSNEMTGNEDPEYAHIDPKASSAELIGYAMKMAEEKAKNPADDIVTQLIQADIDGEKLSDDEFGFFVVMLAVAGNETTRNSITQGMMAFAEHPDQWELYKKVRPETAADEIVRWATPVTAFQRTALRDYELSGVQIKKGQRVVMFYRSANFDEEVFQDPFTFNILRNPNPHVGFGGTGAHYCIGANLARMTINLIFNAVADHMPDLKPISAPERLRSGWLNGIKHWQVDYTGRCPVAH
The assay can be described thus: Inhibition of Mycobacterium tuberculosis H37Rv CYP125A1 expressed in Escherichia coli at 200 uM.

`CC1CCC(C(=O)NC(Cc2c[nH]c3ccccc23)C(=O)Nc2ccncc2)CC1` (stereo unspecified) returned an inhibition at 200 µM of 30%.
